The target in data set [1] is T1, wild-type mouse Pgp (MDR3) (Mus musculus, UniProt P21447). From the text: The STDD NMR technique is a robust method used to characterize the interaction between a drug and receptor protein [36, 86]. This technique utilizes a saturated low-strength radio frequency (RF) to selectively excite the receptor protein. […] Due to the localization of Pgp, most of its substrates are lipophilic, resulting in a probable non-specific interaction between its substrates and liposomes in the observed STD NMR spectrum. Therefore, STD NMR of liposomes in the presence of drugs was performed. The resulting spectrum was subtracted from the ^1H STD NMR spectrum obtained from the drug in the presence of proteoliposome (Pgp reconstituted into liposome) to achieve a saturation transfer double-difference (STDD) NMR spectrum, which nullified the STD observations of the drugs in the presence of liposomes.
This technique was performed as previously described. […] The NMR tubes with the sample were centrifuged at 3000× g for 5 min. To suppress the background signals caused by water, a tailored gradient pulse sequence known as water suppression by gradient-tailored excitation (WATERGATE) was also included. A train of 50 ms Gaussian-shaped selective pulses was used to selectively excite and saturate Pgp for two seconds, and a relaxation delay of five seconds was also used. The STD NMR spectra for both the control and the samples were obtained through phase cycling, where the Pgp irradiation resonance was alternated between 1.5 ppm and 42 ppm on and off resonance, respectively, for 512 scans, creating the ^1H NMR spectrum.
For this experiment, the NMR studies were performed on a Bruker Avance NEO 800 MHz NMR spectrometer with a 1.7 mm TCI H{CN} probe at 25 °C. The STD NMR data generated were analyzed using iNMR software (Nucleomatic, Molfetta, Italy), Igor Pro 6.2, and Mnova 14.2.0 (Mastrelab Research S.L., Santiago de Compostela, Spain).

Data set [2] has as its target T1, wild-type mouse Pgp (MDR3). As to the kind of experiment: Pgp-mediated ATPase activity (Chifflet colorimetric Pi assay, proteoliposomes). As to the method:
Overexpression of wild-type mouse Pgp (MDR3) was achieved by using genetically engineered strains of Pichia pastoris with a 6X histidine tag. The cells were cultured in glycerol media, and methanol was used to induce the overexpression of Pgp at the Bioexpression and Fermentation Facility (BFF), University of Georgia, Athens, GA, USA. A repeated cycle of freezing using liquid nitrogen, blending, and thawing was used to lyse the Pgp-expressing P. pastoris cells. The protein was purified using affinity chromatography with nickel-nitrilotriacetic acid (Ni-NTA) resin (Thermo Fisher Scientific, Waltham, MA, USA). DDM was used to solubilize the protein, and the solution was concentrated using Amicon Ultra-15 100 kDa cut-off filters (EMD Millipore, Billerica, MA, USA). […] The purified DDM-solubilized Pgp was aliquoted and stored at −80 °C for future analysis.
Pgp was reconstituted into liposomes as previously described. Briefly, liposomes comprising 80% (w/v) Avanti Escherichia coli total lipid extract and 20% (w/v) cholesterol were dissolved in chloroform to achieve a final concentration of 10 mg mL^−1, and the volume was adjusted to 10 mL. […] The solution was subjected to ten cycles of freeze–thaw using liquid nitrogen and a water bath (67 °C), resulting in the formation of liposomes with varying sizes, and extruded eleven times in a LIPEX extruder (Northern Lipids, Burnaby, BC, Canada) to produce identical-sized liposomes, using a 400 nm cut-off filter.
Approximately 40 µL of DDM-solubilized Pgp was dialyzed for two hours against HEPES buffer (20 mM HEPES, 100 mM NaCl, 5 mM MgCl2, 2 mM DTT, pH 7.4) to remove any remnants of the detergent, DDM. The dialyzed protein was mixed with 4 mg mL^−1 of the extruded liposomes and incubated on ice for at least one hour to allow Pgp to integrate into the liposomes. To remove any additional detergent and further facilitate Pgp integration into the liposome, the solution was dialyzed for a second time for two hours in HEPES buffer to form proteoliposomes, and the concentration of Pgp reconstituted in liposomes was determined using the Bio-Rad DC Protein assay. Finally, the solution was aliquoted and stored at −80 °C for future use.
The Chifflet method is a colorimetric method that measures the amount of free inorganic phosphate (Pi) through the formation of ammonium molybdate and Pi complex, which produces a strong absorbance at 850 nm. The absorbance was measured on a 96-well plate using a CLARIOstar microplate reader (BMG Labtech, Ortenberg, Germany). […] The final concentrations of the proteoliposome and ATP were maintained at 50 nM and 3.2 mM, respectively. Orthovanadate was used as a control and run in parallel to the samples. Finally, the kinetic curves for ATPase activity were fit to a modified Michaelis-Menten equation (Equation (1)). Igor 6.2 Pro software (Wavemetrics, Tigard, OR, USA) was used for data analysis.(1) V=VmaxS/Km+S+Vbasal where V = Rate of ATP hydrolysis; Vmax = Maximum velocity of ATP hydrolysis; [S] = Substrate concentration; Km = Michaelis–Menten constant; and Vbasal = basal ATPase activity.

For the next data set, the system named is Pgp. Conditions: CLEFF9 cells, cited from earlier work.

“And” between values parts separate entries of the source, which are not always exact repeats. Equal values may be shown once. Read-outs that look alike come from different tables or passages of the source.

T1 sequence (P21447 whole entry): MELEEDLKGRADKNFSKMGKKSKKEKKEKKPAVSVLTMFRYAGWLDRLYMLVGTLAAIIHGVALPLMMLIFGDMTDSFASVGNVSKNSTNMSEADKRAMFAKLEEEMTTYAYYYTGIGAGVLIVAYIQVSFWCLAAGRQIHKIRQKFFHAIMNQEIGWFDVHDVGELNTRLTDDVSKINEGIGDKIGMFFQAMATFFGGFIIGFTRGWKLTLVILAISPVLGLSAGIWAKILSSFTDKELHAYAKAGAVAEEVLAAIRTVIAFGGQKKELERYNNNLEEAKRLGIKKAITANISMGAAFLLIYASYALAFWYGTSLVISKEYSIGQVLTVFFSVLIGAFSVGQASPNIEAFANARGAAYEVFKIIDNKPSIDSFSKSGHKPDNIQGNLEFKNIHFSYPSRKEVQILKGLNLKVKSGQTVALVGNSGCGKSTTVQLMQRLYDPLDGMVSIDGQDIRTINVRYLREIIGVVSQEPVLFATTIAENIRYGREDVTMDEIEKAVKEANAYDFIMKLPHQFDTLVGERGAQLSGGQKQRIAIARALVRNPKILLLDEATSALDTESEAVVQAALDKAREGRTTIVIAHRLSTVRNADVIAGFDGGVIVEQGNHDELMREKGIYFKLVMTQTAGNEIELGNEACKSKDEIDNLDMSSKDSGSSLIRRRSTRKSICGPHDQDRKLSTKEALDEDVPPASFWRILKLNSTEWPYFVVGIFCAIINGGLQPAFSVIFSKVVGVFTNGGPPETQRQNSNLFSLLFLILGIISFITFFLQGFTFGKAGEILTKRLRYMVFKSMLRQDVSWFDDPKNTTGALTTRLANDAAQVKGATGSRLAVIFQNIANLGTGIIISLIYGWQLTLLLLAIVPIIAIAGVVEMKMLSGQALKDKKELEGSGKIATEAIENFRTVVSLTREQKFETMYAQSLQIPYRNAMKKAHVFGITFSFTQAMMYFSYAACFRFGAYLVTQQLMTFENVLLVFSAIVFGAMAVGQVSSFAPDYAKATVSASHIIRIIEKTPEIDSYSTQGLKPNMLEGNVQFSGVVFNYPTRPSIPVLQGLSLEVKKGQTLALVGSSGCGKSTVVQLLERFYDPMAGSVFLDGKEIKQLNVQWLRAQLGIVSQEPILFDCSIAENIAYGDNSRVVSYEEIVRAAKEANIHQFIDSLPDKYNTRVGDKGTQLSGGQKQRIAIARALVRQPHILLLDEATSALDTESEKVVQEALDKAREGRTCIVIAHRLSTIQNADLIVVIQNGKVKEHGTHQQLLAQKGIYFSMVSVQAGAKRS

On to `C[C@]12CC[C@H](O)C[C@H]1CC[C@@H]1[C@@H]2CC[C@]2(C)[C@@H](C3=CC(=O)OC3)CC[C@]12O` [Digitoxigenin, (3β,5β)-3,14-Dihydroxy-card-20(22)-enolide], for which the “Interaction (Region/Group) Pgp (STDD-NMR Data)” value (“Interaction (Region/Group) Pgp” below) in data set [1] (1 mM drug, 1 µM Pgp, 25 °C) is “Protons on C1, C12, C18, C19 of steroid; C22 of lactone”. In addition, the “Effect on Pgp's ATPase hydrolytic activity relative to basal” value in data set [2] (in words) is “induced”. In data set [2] (relative to the offset (basal activity), 37 °C, 3.2 mM ATP, 50 nM proteoliposome, modified Michaelis-Menten fit), the “Vmax of CG-induced Pgp-mediated ATP hydrolysis” value was 216.02 ± 16.01 nmol/min/mg.

In the case of `C[C@]12CC[C@H](O)C[C@H]1CC[C@@H]1[C@@H]2C[C@@H](O)[C@]2(C)[C@@H](C3=CC(=O)OC3)CC[C@]12O` [Digoxigenin, 3β,12β,14-Trihydroxy-5β,20(22)-cardenolide], the “Interaction (Region/Group) Pgp” value in data set [1] (1 mM drug, 1 µM Pgp, 25 °C) is on record as “Protons on C1, C3,C12, C17, C18, C19 of steroid; C21, C22 of lactone”. The “Effect on Pgp's ATPase hydrolytic activity relative to basal” value in data set [2] (in words) is “induced”. Also, the “Decrease of transport rate on treatment with erythromycin” value with Pgp is recorded as “about 43%”.

On to `C[C@H]1O[C@@H](O[C@H]2[C@@H](O)C[C@H](O[C@H]3[C@@H](O)C[C@H](O[C@H]4CC[C@@]5(C)[C@H](CC[C@@H]6[C@@H]5C[C@@H](O)[C@]5(C)[C@@H](C7=CC(=O)OC7)CC[C@]65O)C4)O[C@@H]3C)O[C@@H]2C)C[C@H](O)[C@@H]1O` [Digoxin], for which, in data set [1] (mouse, not told, 1 mM, pH 7.4), the “Interaction (Region/Group) Pgp” value is “Protons on C3,C18, C19 of steroid; C22 of lactone; C3,C5,C6 of sugar”. In data set [2], the “Effect on Pgp's ATPase hydrolytic activity relative to basal” value is “induced”; the “Vmax of CG-induced Pgp-mediated ATP hydrolysis” value is 277.53 ± 7.24 nmol min^−1 mg^−1 and 277.53 ± 7.24. In addition, in the data set with Pgp (in words), the “Effect of erythromycin treatment on Pgp-mediated efflux rate” value is listed as “did not affect”.
